This passage reports Activity and pKB results from ChEMBL document CHEMBL1127120, “Benzofuran based angiotensi II antagonists related to GR117289: Part II; amino acid amides” (Bioorg Med Chem Lett, 1993).

Broadly, the pKB is the KB on a negative log10 scale, so that one unit is a factor of ten.

Activity calls are given as the source filed them. The calls are words filed in the database; no cut-off is given here.

For the first assay, the species on record is Rattus norvegicus. Kind of assay: Oral activity in renal artery ligated rat model was determined; no significant activity. Format: functional, organism-based.
On to `CCCCc1nc(Cl)c(C(=O)N[C@@H](C(=O)O)[C@H](C)CC)n1Cc1ccc2oc(-c3ccccc3-c3nn[nH]n3)c(Br)c2c1`, for which the outcome was inactive.
`CCCCc1nc(Cl)c(C(=O)N[C@H](Cc2ccccc2)C(=O)O)n1Cc1ccc2oc(-c3ccccc3-c3nn[nH]n3)c(Br)c2c1`: the result was inactive.
Same read-out and setting: as for `CCCCc1nc(Cl)c(C(=O)NCC(=O)O)n1Cc1ccc2oc(-c3ccccc3-c3nn[nH]n3)c(Br)c2c1`, the entry is “inactive”.
With `CCCCc1nc(Cl)c(C(=O)N[C@@H](C)C(=O)O)n1Cc1ccc2oc(-c3ccccc3-c3nn[nH]n3)c(Br)c2c1`, the result was inactive.
As for `CCCCc1nc(Cl)c(C(=O)NCC(N)=O)n1Cc1ccc2oc(-c3ccccc3-c3nn[nH]n3)c(Br)c2c1`, the outcome was inactive.
Turning to `CCCCc1nc(Cl)c(C(=O)N[C@H](C)C(=O)O)n1Cc1ccc2oc(-c3ccccc3-c3nn[nH]n3)c(Br)c2c1`, the result was inactive.

The target in another assay is T1, Type-1 angiotensin II receptor (Oryctolagus cuniculus) (UniProt P34976).
T1 sequence (whole entry): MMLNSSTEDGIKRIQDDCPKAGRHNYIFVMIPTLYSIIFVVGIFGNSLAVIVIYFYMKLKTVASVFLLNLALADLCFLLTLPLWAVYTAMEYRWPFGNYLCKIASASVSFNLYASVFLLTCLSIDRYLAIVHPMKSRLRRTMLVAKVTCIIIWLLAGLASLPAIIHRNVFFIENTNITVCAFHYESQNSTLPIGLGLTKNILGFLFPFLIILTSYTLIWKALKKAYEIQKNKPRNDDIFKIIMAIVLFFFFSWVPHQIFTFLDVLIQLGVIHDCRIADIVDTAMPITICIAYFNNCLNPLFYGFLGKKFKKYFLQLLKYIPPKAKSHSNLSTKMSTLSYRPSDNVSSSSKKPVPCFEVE
Kind of assay: Affinity for Angiotensin II receptor, type 1 as antagonism of angII contractile effect in rabbit isolated thoracic aorta. Format: functional, tissue-based.
In turn, `CCCCc1ncc(C=C(Cc2cccs2)C(=O)O)n1Cc1ccc2oc(-c3ccccc3-c3nn[nH]n3)c(Br)c2c1` showed a pKB of 10.9.
Compound `CCCCc1nc(Cl)c(C(=O)N[C@@H](C(=O)O)[C@H](C)CC)n1Cc1ccc2oc(-c3ccccc3-c3nn[nH]n3)c(Br)c2c1` returned a pKB of 9.2.
Same read-out and setting: the figure for `CCCCc1nc(Cl)c(C(=O)N[C@H](Cc2ccccc2)C(=O)O)n1Cc1ccc2oc(-c3ccccc3-c3nn[nH]n3)c(Br)c2c1` is 8; for `CCCCc1nc(Cl)c(C(=O)NCC(=O)OCC)n1Cc1ccc2oc(-c3ccccc3-c3nn[nH]n3)c(Br)c2c1` it is 9.3.
The same measure, in the same setting: as for `CCCCc1nc(Cl)c(C(=O)NCC(=O)O)n1Cc1ccc2oc(-c3ccccc3-c3nn[nH]n3)c(Br)c2c1`, the figure is 9.4; as for `CCCCc1nc(Cl)c(C(=O)N[C@@H](C)C(=O)O)n1Cc1ccc2oc(-c3ccccc3-c3nn[nH]n3)c(Br)c2c1`, 8.9.
As to `CCCCc1nc(Cl)c(C(=O)NCC(N)=O)n1Cc1ccc2oc(-c3ccccc3-c3nn[nH]n3)c(Br)c2c1`, the negative-log KB (pKB) came out at 9.4.
In turn, `CCCCc1nc(Cl)c(C(=O)N[C@H](C)C(=O)O)n1Cc1ccc2oc(-c3ccccc3-c3nn[nH]n3)c(Br)c2c1` yielded a negative-log KB (pKB) of 9.

A further assay relates to Rattus norvegicus. The assay is described as follows: Oral activity in renal artery ligated rat model was determined; excellent significant activity causing large and sustained fall in blood pressure at a dose of 1 mg/Kg. It is filed as functional, organism-based.
`CCCCc1nc(Cl)c(C(=O)NCC(=O)OCC)n1Cc1ccc2oc(-c3ccccc3-c3nn[nH]n3)c(Br)c2c1`: the result was Active.
